Laboratory results as given in publication PMC3259201 (European Journal of Medicinal Chemistry, 2011).
“Also recorded” adds a separate entry of the source.

tested on: HIV-1 NL4-3 strain; experiment: HIV-1 infectivity assay, single cycle infection of TZM-bl cells; type: cell-based; conditions: wild-type HIV-1 NL4-3 strain

SMILES | anti-HIV activity (in words)
CC1(C)Oc2cc(O)c3c(=O)c4ccccc4oc3c2[C@@H](OC(=O)[C@@]23CCC(C)(C(=O)O2)C3(C)C)[C@H]1OC(=O)[C@@]12CCC(C)(C(=O)O1)C2(C)C [Compound 9, 1R,2R-(-)-Dicamphanoyl-3,3-dimethyl-6-hydroxy-1,2-dihydropyrano[2,3-c]xanthen-7(1H)-one] | did not show notable activity or selectivity; also recorded: did not exhibit anti-HIV activity
COc1cccc2c(=O)c3c(OC)cc4c(c3oc12)[C@@H](OC(=O)[C@@]12CCC(C)(C(=O)O1)C2(C)C)[C@@H](OC(=O)[C@@]12CCC(C)(C(=O)O1)C2(C)C)C(C)(C)O4 [Compound 14, 1R,2R-(-)-Dicamphanoyl-3,3-dimethyl-6,11-dimethoxy-1,2-dihydropyrano[2,3-c]xanthen-7(1H)-one] | no detectable anti-HIV activity or selectivity
COc1cc2c(c3oc4c(C)cccc4c(=O)c13)[C@@H](OC(=O)C13CCC(C)(C(=O)O1)C3(C)C)[C@@H](OC(=O)C13CCC(C)(C(=O)O1)C3(C)C)C(C)(C)O2 (stereo partly drawn) [Compound 10, 1R,2R-(-)-Dicamphanoyl-3,3,11-trimethyl-6-methoxy-1,2-dihydropyrano[2,3-c]xanthen-7(1H)-one] | almost inactive
